Laboratory results published in PubChem BioAssay AID328 (DTP/NCI, 2004).
Where “and” joins values, the source holds several entries; their conditions need not be identical. Equal values may be shown once. Toxic doses and inconclusive results are not listed.

Tested on: BDF1 mice, P388 leukemia ip, median survival T/C
Experiment: NCI In Vivo Anticancer Drug Screen. Data for tumor model P388 Leukemia (intraperitoneal) in B6D2F1 (BDF1) mice
Conditions: endpoint: median survival time, higher = longer survival
Summary of the method: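 Survival ratio, drug arm over vehicle arm, in mice with a transplanted tumour.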

[1] = dose: 100.0 mg/kg/injection, schedule: Q04DX003 (ip), vehicle: saline with Tween-80
[2] = dose: 200.0 mg/kg/injection, schedule: Q04DX003 (ip), vehicle: saline with Tween-80
[3] = dose: 400.0 mg/kg/injection, schedule: Q04DX003 (ip), vehicle: saline with Tween-80
[4] = dose: 100.0 mg/kg/injection, schedule: Q04DX003 (ip), vehicle: Klucel (hydroxypropylcellulose) (HPC)
[5] = dose: 50.0 mg/kg/injection, schedule: Q01DX009 (ip), vehicle: saline with Tween-80
[6] = dose: 200.0 mg/kg/injection, schedule: Q01DX009 (ip), vehicle: saline with Tween-80

`Cc1cc(N(CCCl)CCCl)ccc1N=Nc1ccccc1C(=O)O` was tested, and the T/C (dose: 5.0 mg/kg/injection, schedule: Q01DX010 (ip), vehicle: saline) was 150 % of control, the T/C (dose: 10.0 mg/kg/injection, schedule: Q01DX010 (ip), vehicle: saline) was 175 % of control and the T/C (dose: 20.0 mg/kg/injection, schedule: Q01DX010 (ip), vehicle: saline) was 210 % of control. The T/C (dose: 40.0 mg/kg/injection, schedule: Q01DX010 (ip), vehicle: saline) was 95 % of control.

In the case of `CCCCNC(C)(C)C(SSS(=O)(=O)O)c1ccc(Cl)cc1` (stereo not drawn), the T/C [1] is reported as 100 % of control, the T/C [2] is reported as 100 % of control and the T/C [3] is reported as 116 % of control.

With `c1ccc2c(c1)ccc1[nH]c3ccccc3c12` the T/C [1] was 116 % of control, the T/C [2] was 112 % of control and the T/C [3] was 105 % of control.

With `Cc1cc(C)c(C)c(Br)c1C` the T/C [4] was 95 % of control, the T/C (dose: 200.0 mg/kg/injection, schedule: Q04DX003 (ip), vehicle: Klucel (hydroxypropylcellulose) (HPC)) was 100 % of control and the T/C (dose: 400.0 mg/kg/injection, schedule: Q04DX003 (ip), vehicle: Klucel (hydroxypropylcellulose) (HPC)) was 100 % of control.

With `OCCOCCN1CCN(CC/C=C2\c3ccccc3Sc3ccc(C(F)(F)F)cc32)CC1` the T/C (dose: 0.75 mg/kg/injection, schedule: Q01DX009 (ip), vehicle: saline) was 95 % of control, the T/C (dose: 1.5 mg/kg/injection, schedule: Q01DX009 (ip), vehicle: saline) was 90 % of control and the T/C (dose: 3.0 mg/kg/injection, schedule: Q01DX009 (ip), vehicle: saline) was 95 % of control.

In the case of `Cc1ccc(C(=O)O)c(=O)[nH]1`, the T/C [5] is reported as 98 % of control, the T/C (dose: 100.0 mg/kg/injection, schedule: Q01DX009 (ip), vehicle: saline with Tween-80) is reported as 95 % of control and the T/C [6] is reported as 100 % of control. The T/C (dose: 400.0 mg/kg/injection, schedule: Q01DX009 (ip), vehicle: saline with Tween-80) was 94 % of control.

`COC(=O)C1C(=O)COC1C` (stereo not drawn) was tested, and the T/C (dose: 12.5 mg/kg/injection, schedule: Q01DX005 (ip), vehicle: saline with Tween-80) was 109 % of control, the T/C (dose: 25.0 mg/kg/injection, schedule: Q01DX005 (ip), vehicle: saline with Tween-80) was 112 % of control and the T/C (dose: 50.0 mg/kg/injection, schedule: Q01DX005 (ip), vehicle: saline with Tween-80) was 110 % of control.

In the case of `CC[n+]1ccc(Cc2ccc([N+](=O)[O-])cc2)cc1`, the T/C (dose: 25.0 mg/kg/injection, schedule: Q01DX009 (ip), vehicle: Klucel (hydroxypropylcellulose) (HPC)) is reported as 104 % of control and 119 % of control, the T/C (dose: 25.0 mg/kg/injection, schedule: Q04DX003 (ip), vehicle: Klucel (hydroxypropylcellulose) (HPC)) is reported as 100 % of control and the T/C (dose: 50.0 mg/kg/injection, schedule: Q01DX009 (ip), vehicle: Klucel (hydroxypropylcellulose) (HPC)) is reported as 109 % of control. The T/C (dose: 50.0 mg/kg/injection, schedule: Q04DX003 (ip), vehicle: Klucel (hydroxypropylcellulose) (HPC)) was 100 % of control and the T/C [4] was 100 % of control.

For `Cc1cccc(-n2c(CC#N)n[nH]c2=S)c1`, the T/C [5] was 96 % of control and the T/C [6] was 100 % of control.

For `N.N.N.NC(Cc1cnc[nH]1)C(=O)[O-].O=[N+]([O-])[O-].[Co+3]` (stereo not drawn), the T/C (dose: 2.0 mg/kg/injection, schedule: Q01DX009 (ip), vehicle: saline) was 89 % of control, the T/C (dose: 4.0 mg/kg/injection, schedule: Q01DX009 (ip), vehicle: saline) was 95 % of control and 110 % of control and 113 % of control and the T/C (dose: 8.0 mg/kg/injection, schedule: Q01DX009 (ip), vehicle: saline) was 100 % of control and 110 % of control. For the same compound, the T/C (dose: 20.0 mg/kg/injection, schedule: Q01DX009 (ip), vehicle: saline) was 120 % of control and the T/C (dose: 25.0 mg/kg/injection, schedule: Q01DX009 (ip), vehicle: saline) was 90 % of control.

`CCCCNC(C)(C)C(SSC(c1cccs1)C(C)(C)NCCCC)c1cccs1` (stereo not drawn) was tested, and the T/C (dose: 25.0 mg/kg/injection, schedule: Q01DX009 (ip), vehicle: saline with Tween-80) was 100 % of control, the T/C (dose: 25.0 mg/kg/injection, schedule: Q04DX003 (ip), vehicle: saline with Tween-80) was 109 % of control and the T/C [5] was 100 % of control. The T/C (dose: 50.0 mg/kg/injection, schedule: Q04DX003 (ip), vehicle: saline with Tween-80) was 118 % of control and the T/C [1] was 118 % of control.

In the case of `COc1ccc2ccccc2c1/C=N/N1CCCCC1`, the T/C [1] is reported as 110 % of control, the T/C [2] is reported as 95 % of control and the T/C [3] is reported as 115 % of control.
